Experimental data published in patent US20230414826A1, “FIBRIN HYDROGELS” (Mayo Foundation for Medical Education and Research, priority 2020, published 2023).

Target: T1, fibrin gels (10 mg/mL fibrinogen, 1 U/mL thrombin) (Homo sapiens, UniProt P02671+P02675+P02679)
T1 construct: purchased Ethicon (Evicel)
T1 sequence (P02671 20-644 isoform P02671-2 limits assumed): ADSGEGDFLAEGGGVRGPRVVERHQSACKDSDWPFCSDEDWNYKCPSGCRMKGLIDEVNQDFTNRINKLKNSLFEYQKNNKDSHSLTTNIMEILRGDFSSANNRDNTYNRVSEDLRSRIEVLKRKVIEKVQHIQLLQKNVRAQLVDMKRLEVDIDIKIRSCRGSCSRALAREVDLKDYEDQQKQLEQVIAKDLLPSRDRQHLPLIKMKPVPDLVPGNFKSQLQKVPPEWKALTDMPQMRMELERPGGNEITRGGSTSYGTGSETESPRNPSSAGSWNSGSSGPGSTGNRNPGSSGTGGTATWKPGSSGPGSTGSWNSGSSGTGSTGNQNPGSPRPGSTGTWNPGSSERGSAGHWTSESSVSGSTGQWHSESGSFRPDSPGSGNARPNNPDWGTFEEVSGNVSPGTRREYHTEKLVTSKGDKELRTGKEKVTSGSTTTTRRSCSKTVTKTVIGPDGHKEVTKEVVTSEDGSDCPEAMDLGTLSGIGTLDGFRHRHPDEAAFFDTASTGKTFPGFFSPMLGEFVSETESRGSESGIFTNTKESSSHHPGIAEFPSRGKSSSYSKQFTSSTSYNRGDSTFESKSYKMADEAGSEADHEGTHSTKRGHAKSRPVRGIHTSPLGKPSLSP
T1 sequence (P02675 45-491 limits assumed): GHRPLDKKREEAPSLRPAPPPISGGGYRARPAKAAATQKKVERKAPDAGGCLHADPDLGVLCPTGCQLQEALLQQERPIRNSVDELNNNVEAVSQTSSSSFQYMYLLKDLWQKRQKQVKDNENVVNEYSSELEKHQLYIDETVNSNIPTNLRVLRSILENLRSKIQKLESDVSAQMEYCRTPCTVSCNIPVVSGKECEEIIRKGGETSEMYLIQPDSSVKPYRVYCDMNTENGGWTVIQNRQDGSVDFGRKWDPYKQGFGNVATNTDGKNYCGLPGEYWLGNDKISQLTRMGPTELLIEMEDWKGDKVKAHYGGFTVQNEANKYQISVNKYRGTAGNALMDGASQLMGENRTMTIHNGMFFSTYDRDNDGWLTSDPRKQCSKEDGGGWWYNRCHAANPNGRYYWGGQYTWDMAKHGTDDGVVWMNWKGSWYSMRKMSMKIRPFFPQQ
T1 sequence (P02679 27-437 isoform P02679-2 limits assumed): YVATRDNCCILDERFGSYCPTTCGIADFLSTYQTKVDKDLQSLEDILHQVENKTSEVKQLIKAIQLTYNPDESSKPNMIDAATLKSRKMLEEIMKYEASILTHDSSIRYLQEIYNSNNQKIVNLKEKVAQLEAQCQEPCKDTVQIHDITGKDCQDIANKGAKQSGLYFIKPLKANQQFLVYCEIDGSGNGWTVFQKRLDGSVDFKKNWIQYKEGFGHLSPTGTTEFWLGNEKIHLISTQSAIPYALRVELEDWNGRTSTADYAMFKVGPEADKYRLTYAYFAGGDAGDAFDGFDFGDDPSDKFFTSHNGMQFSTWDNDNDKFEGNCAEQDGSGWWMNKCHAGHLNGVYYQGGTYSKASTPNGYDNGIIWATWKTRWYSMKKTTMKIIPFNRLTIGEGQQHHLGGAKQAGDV
Experiment: Rheometry gelation time, lower fibrinogen concentration fibrin gels
Format: biochemical
Conditions: n=3
Method: The viscoelastic mechanical properties of fibrin gels were characterized using oscillatory shear rheology on a Discovery Hybrid Rheometer 2 (TA Instruments; New Castle, DE) with a 20 mm cone-and-plate geometry at a 1° angle and a 20 mm stage. Inertia, friction, and rotational mapping calibrations were performed prior to each experiment. A Peltier temperature-controlled stage maintained 37° C. and a solvent trap was used to control evaporation during experiments lasting longer than 20 minutes. Gels were prepared by mixing specified concentrations of fibrinogen, dye, and thrombin on the stage. Immediately after combining, the geometry head was lowered to 500 μm (˜1-3 seconds) before beginning the first experiment. Gelation kinetics were monitored in time sweeps at 1% strain and 10 rad/s angular frequency. Strain sweeps were measured from 0.01-1000% strain at 1 Hz frequency. A frequency sweeps measured from 0.01-3 Hz at 1% strain was used to confirmed fibrin independence of frequency.
Rheometry was performed for samples with no dye (PBS alone), TB, EB, and PEG. Stock fibrinogen (Evicel) was used as is or diluted with PBS. Thrombin was diluted in PBS, with or without the various dyes. To determine the gelation time, a final mixture concentration of 10 mg/mL fibrinogen, 1 U/mL thrombin, and 0.01% w/v dye concentration was used. A time sweep was performed up to 20 minutes, after which some minor effects of evaporation in non-gelled samples introduced noise and could not reliably detect the storage modulus (g′). The gelation time was defined as the point at which the g′ exceeded the g″ (viscous modulus) and continued to increase over time.
Rheometry was used to confirm findings obtained using the coagulation analyzer and test conditions at higher fibrinogen concentrations used in high mechanical strength scaffolds. While clotting time and gelation time are similar properties, the terms are utilized discretely due to the differences in the respective assays. However, in controls for gels at higher fibrinogen concentrations, thrombin concentrations were decrease by orders of magnitude to assess initial gel time based on the sensitivity of the rheometer. In order to consistently detect a gelation time, when the g′ value (shear modulus) becomes greater than the g″ value (viscous modulus), conditions were set to […] fibrinogen and 1 U/mL thrombin final concentration using tissue glue for all samples. Sample conditions tested using rheometry included use of PBS (control), TB, EB, or PEG solution to dilute the thrombin so that the final gel concentration of the dye was 0.01% w/v. […]
Initially, g′ and g″ values were on the same scale (<2 Pa). […] Due to this, the gelation time was calculated as when the g′ values exceeded the g″ value and continued to grow over time (arrow, FIG. 5A). […]

| SMILES | gelation time (g′ exceeds g″) (0.005% w/v dye) [s] | gelation time (g′ exceeds g″) (0.01% w/v dye) [s] | gelation time (g′ exceeds g″) (0.12% w/v dye) [s] |
| --- | --- | --- | --- |
| Cc1cc(-c2ccc(/N=N/c3c(S(=O)(=O)O)cc4cc(S(=O)(=O)O)cc(N)c4c3O)c(C)c2)ccc1/N=N/c1c(S(=O)(=O)O)cc2cc(S(=O)(=O)O)cc(N)c2c1O [TB, Trypan Blue] | 106.4 ± 22.5 | 168.7 ± 19.9 | 206.7 ± 31.3 |
| Cc1cc(-c2ccc(/N=N/c3ccc4c(S(=O)(=O)O)cc(S(=O)(=O)O)c(N)c4c3O)c(C)c2)ccc1/N=N/c1ccc2c(S(=O)(=O)O)cc(S(=O)(=O)O)c(N)c2c1O [EB, Evans Blue] |  | 232.1 ± 19.3 |  |
